Reference: patent US9481636B2, “N-benzylaniline derivative and uses thereof” (Nanjing Medical University, priority 2011, dated 2016)

System: OGD-injuried neurons (primary cortical neurons)
Test: Cell viability assay: LDH release by OGD-injured primary cortical neurons
Format: cell-based, mice
Conditions: Mus musculus, Primary cortical neuron; drug concentration 10^−6 M/L; OGD 2 hours, LDH after 8 hours
Experimental: After primary neurons were cultured for 9 days, the medium was replaced by DMEM high glucose medium containing 1% FBS, serum-starved overnight and then washed twice with OGD culture solution. This OGD culture solution contains DMEM medium, 1% FBS, 1% penicillin/streptomycin and B27, and contains no sugar. Then, the primary neurons were incubated with the test drugs for 30 minutes, OGD culture solution was added into an anaerobic tank and oxygen-deprived for 2 hours. The OGD culture solution was discarded, and replaced by oxygen-saturated DMEM medium containing 1% FBS, 1% penicillin/streptomycin and B27. After 8 hours the culture solution was collected to measure LDH level.
After the primary cortical neurons were treated with various processes, neuronal culture solution in six-well plates was pipetted to a 1.5 mL plastic centrifuge tube; cells were washed three times with PBS solution and each well was added PBS 1000 μl. The cells were freezed and thawed repeated for three times, centrifuged at 12000′ g for 5 minutes at 4° C., and the supernatant was removed for use. The activity of LDH enzyme was determined with 50 μl culture solution and 25 μl supernatant using lactate dehydrogenase kit.
Protective Effects of the Objective Compounds Against Primary Cortical Neuronal Injury Cultured In Vitro (See Table 2)

Row | Compound | inhibition at 1 µM [%]
1 | CCCC(=O)Oc1cc(NCc2cc(C(F)(F)F)cc(Cl)c2O)ccc1C(=O)OC1CC2CCC1(C)C2(C)C (stereo not drawn) [ZL006-52, bornyl-2-butyryloxy-4-(2-hydroxy-3-chloro-5-trifluoromethylbenzyl)aminobenzoate] | 40.5
2 | CC1(C)C2CCC1(C)C(OC(=O)c1cc(NCc3cc(F)cc(Cl)c3O)ccc1O)C2 (stereo not drawn) [ZL006-56, bornyl-2-hydroxy-5-(2-hydroxy-3-chloro-5-fluorobenzyl)aminobenzoate] | 50
3 | CCCC(=O)Oc1cc(NCc2cc(F)cc(Cl)c2O)ccc1C(=O)OC1CC2CCC1(C)C2(C)C (stereo not drawn) [ZL006-60, bornyl-2-butyryloxy-4-(2-hydroxy-3-chloro-5-fluorobenzyl)aminobenzoate] | 68.4
4 | CC(=O)Oc1cc(NCc2cc(C(F)(F)F)ccc2O)ccc1C(=O)OC1CC2CCC1(C)C2(C)C (stereo not drawn) [ZL006-74, bornyl-2-acetyloxy-4-(2-hydroxy-5-trifluoromethylbenzyl)aminobenzoate] | 24.7
5 | COc1c(Cl)cc(C(F)(F)F)cc1CNc1ccc(C(=O)OC2CC3CCC2(C)C3(C)C)c(O)c1 (stereo not drawn) [ZL006-79, bornyl-2-hydroxy-4-(2-methoxy-3-chloro-5-trifluoromethylbenzyl)aminobenzoate] | 58.3
6 | CC(=O)Oc1c(Cl)cc(C(F)(F)F)cc1CNc1ccc(C(=O)OC2CC3CCC2(C)C3(C)C)c(O)c1 (stereo not drawn) [ZL006-80, bornyl-2-hydroxy-4-(2-acetyloxy-3-chloro-5-trifluoromethylbenzyl)aminobenzoate] | 41.1

Same assay, conditions: drug concentration 10^−6 M/L; OGD 2 hours, LDH after 8 hours

Row | Compound | Inhibition of LDH release (%)
7 | CN(Cc1cc(C(F)(F)F)cc(Cl)c1O)c1ccc(C(=O)OC2CC3CCC2(C)C3(C)C)c(O)c1 (stereo not drawn) [ZL006-53, bornyl-2-hydroxy-4-[N-(2-hydroxy-3-chloro-5-trifluoromethylbenzyl)-N-methyl]aminobenzoate] | 61.1
8 | CC(=O)N(Cc1cc(C(F)(F)F)cc(Cl)c1O)c1ccc(C(=O)OC2CC3CCC2(C)C3(C)C)c(O)c1 (stereo not drawn) [ZL006-54, bornyl-2-hydroxy-4-[N-(2-hydroxy-3-chloro-5-trifluoromethylbenzyl)-N-acetyl]aminobenzoate] | 74.2
9 | CC1(C)C2CCC1(C)C(OC(=O)c1ccc(NCc3cc(F)cc(Cl)c3O)cc1O)C2 (stereo not drawn) [ZL006-55, bornyl-2-hydroxy-4-(2-hydroxy-3-chloro-5-fluorobenzyl) aminobenzoate] | 36.3
10 | COc1cc(NCc2cc(F)cc(Cl)c2O)ccc1C(=O)OC1CC2CCC1(C)C2(C)C (stereo not drawn) [ZL006-57, bornyl-2-methoxy-4-(2-hydroxy-3-chloro-5-fluorobenzyl) aminobenzoate] | 23.6
11 | CCCCOc1cc(NCc2cc(F)cc(Cl)c2O)ccc1C(=O)OC1CC2CCC1(C)C2(C)C (stereo not drawn) [ZL006-58, bornyl-2-n-butoxy-4-(2-hydroxy-3-chloro-5-fluorobenzyl) aminobenzoate] | 25.1
12 | CC(=O)Oc1cc(NCc2cc(F)cc(Cl)c2O)ccc1C(=O)OC1CC2CCC1(C)C2(C)C (stereo not drawn) [ZL006-59, bornyl-2-acetyloxy-4-(2-hydroxy-3-chloro-5-fluorobenzyl) aminobenzoate] | 61.7
13 | CN(Cc1cc(F)cc(Cl)c1O)c1ccc(C(=O)OC2CC3CCC2(C)C3(C)C)c(O)c1 (stereo not drawn) [ZL006-61, bornyl-2-hydroxy-4-[N-(2-hydroxy-3-chloro-5-fluorobenzyl)-N-methyl]aminobenzoate] | 56.5
14 | CC(=O)N(Cc1cc(F)cc(Cl)c1O)c1ccc(C(=O)OC2CC3CCC2(C)C3(C)C)c(O)c1 (stereo not drawn) [ZL006-62, bornyl-2-hydroxy-4-[N-(2-hydroxy-3-chloro-5-fluorobenzyl)-N-acetyl]aminobenzoate] | 50.1
15 | CC1(C)C2CCC1(C)C(OC(=O)c1ccc(NCc3cc(Br)ccc3O)cc1O)C2 (stereo not drawn) [ZL006-63, bornyl-2-hydroxy-4-(2-hydroxy-5-bromobenzyl) aminobenzoate] | 22.8
16 | COc1cc(NCc2cc(Br)ccc2O)ccc1C(=O)OC1CC2CCC1(C)C2(C)C (stereo not drawn) [ZL006-64, bornyl-2-methoxy-4-(2-hydroxy-5-bromobenzyl) aminobenzoate] | 25.4
17 | CC(=O)Oc1cc(NCc2cc(Br)ccc2O)ccc1C(=O)OC1CC2CCC1(C)C2(C)C (stereo not drawn) [ZL006-65, bornyl-2-acetyloxy-4-(2-hydroxy-5-bromobenzyl) aminobenzoate] | 38.2
18 | CC1(C)C2CCC1(C)C(OC(=O)c1ccc(NCc3cc(Cl)ccc3O)cc1O)C2 (stereo not drawn) [ZL006-66, bornyl-2-hydroxy-4-(2-hydroxy-5-chlorobenzyl) aminobenzoate] | 13.3
19 | COc1cc(NCc2cc(Cl)ccc2O)ccc1C(=O)OC1CC2CCC1(C)C2(C)C (stereo not drawn) [ZL006-67, bornyl-2-methoxy-4-(2-hydroxy-5-chlorobenzyl) aminobenzoate] | 0.4
20 | CC(=O)Oc1cc(NCc2cc(Cl)ccc2O)ccc1C(=O)OC1CC2CCC1(C)C2(C)C (stereo not drawn) [ZL006-68, bornyl-2-acetyloxy-4-(2-hydroxy-5-chlorobenzyl) aminobenzoate] | 1.2
21 | CC1(C)C2CCC1(C)C(OC(=O)c1ccc(NCc3cc(F)ccc3O)cc1O)C2 (stereo not drawn) [ZL006-69, bornyl-2-hydroxy-4-(2-hydroxy-5-fluorobenzyl) aminobenzoate] | 17.3
22 | COc1cc(NCc2cc(F)ccc2O)ccc1C(=O)OC1CC2CCC1(C)C2(C)C (stereo not drawn) [ZL006-70, bornyl-2-methoxy-4-(2-hydroxy-5-fluorobenzyl) aminobenzoate] | 2.4
23 | CC(=O)Oc1cc(NCc2cc(F)ccc2O)ccc1C(=O)OC1CC2CCC1(C)C2(C)C (stereo not drawn) [ZL006-71, bornyl-2-acetyloxy-4-(2-hydroxy-5-fluorobenzyl) aminobenzoate] | 7.8
24 | CC1(C)C2CCC1(C)C(OC(=O)c1ccc(NCc3cc(C(F)(F)F)ccc3O)cc1O)C2 (stereo not drawn) [ZL006-72, bornyl-2-hydroxy-4-(2-hydroxy-5-trifluoromethylbenzyl) aminobenzoate] | 21.6
25 | COc1cc(NCc2cc(C(F)(F)F)ccc2O)ccc1C(=O)OC1CC2CCC1(C)C2(C)C (stereo not drawn) [ZL006-73, bornyl-2-methoxy-4-(2-hydroxy-5-trifluoromethylbenzyl) aminobenzoate] | 25.3
26 | COc1c(Cl)cc(Cl)cc1CNc1ccc(C(=O)OC2CC3CCC2(C)C3(C)C)c(O)c1 (stereo not drawn) [ZL006-75, bornyl-2-hydroxy-4-(2-methoxy-3,5-dichlorobenzyl) aminobenzoate] | 31.3
27 | CC(=O)Oc1c(Cl)cc(Cl)cc1CNc1ccc(C(=O)OC2CC3CCC2(C)C3(C)C)c(O)c1 (stereo not drawn) [ZL006-76, bornyl-2-hydroxy-4-(2-acetyloxy-3,5-dichlorobenzyl) aminobenzoate] | 40.5
28 | COc1c(Cl)cc(Br)cc1CNc1ccc(C(=O)OC2CC3CCC2(C)C3(C)C)c(O)c1 (stereo not drawn) [ZL006-77, bornyl-2-hydroxy-4-(2-methoxy-3-chloro-5-bromobenzyl) aminobenzoate] | 44.1
29 | CC(=O)Oc1c(Cl)cc(Br)cc1CNc1ccc(C(=O)OC2CC3CCC2(C)C3(C)C)c(O)c1 (stereo not drawn) [ZL006-78, bornyl-2-hydroxy-4-(2-acetyloxy-3-chloro-5-bromobenzyl) aminobenzoate] | 70.6
30 | COC(=O)c1ccc(N(Cc2cc(Cl)cc(Cl)c2O)C(C)=O)cc1OC(C)=O [ZL006-81, methyl 2-acetyloxy-4-[N-(2-hydroxy-3,5-dichlorobenzyl)-N-acetyl]aminobenzoate] | 31.8
31 | COC(=O)c1ccc(N(Cc2cc(C(F)(F)F)cc(Cl)c2O)C(C)=O)cc1OC(C)=O [ZL006-83, methyl 2-acetyloxy-4-[N-(2-hydroxy-3-chloro-5-trifluoromethylbenzyl)-N-acetyl]aminobenzoate] | 33.2
32 | bornyl-2-(2-ethoxy-2-carbonylethoxy)-4-[N-(2-hydroxy-3,5-dichlorobenzyl)-N-(2-ethoxy-2-carbonylethyl)]aminobenzoate [ZL006-36] | 10.4
33 | bornyl-2-(2-methoxy-2-carbonylethoxy)-4-[N-(2-hydroxy-3,5-dichlorobenzyl)-N-methyl]aminobenzoate [ZL006-34] | 24.1
34 | bornyl-2-(bornyl-2-carbonylethoxy)-4-[N-(2-hydroxy-3,5-dichlorobenzyl)-N-(bornyl-2-carbonylethyl)]aminobenzoate [ZL006-37] | 40.2
35 | methyl 2-(bornyl-2-carbonylethoxy)-4-[N-(2-hydroxy-3,5-dichlorobenzyl)-N-acetyl]aminobenzoate [ZL006-35] | 12.8
36 | methyl 2-acetyloxy-4-[N-(2-hydroxy-3,5-dichlorobenzyl)-N-(bornyl-2-carbonylethyl)]aminobenzoate [ZL006-38] | 41.3
